What was measured:
BRD2-BD2 [1] = target: T1, BRD2-BD2 (Homo sapiens (Human), UniProt P25440); assay: competitive TR-FRET assay, BET-BD with acetylated peptide ligand; assay type: binding; conditions: for [2(1)/2(2)]: Table 6, ratio of EC50; for EC50: Table 6, read-out: EC50 (μM) BRD2(2); for IC50: Table 2, inhibitor potency by TR-FRET; for BD1/BD2: Table 2, ratio BRD2-BD1/BRD2-BD2
Procedure: (§1) Inhibitor potency was determined using a competitive TR-FRET assay as detailed herein, measuring interaction of the respective BET-BD with an acetylated peptide ligand (Table 2).
Target sequence in this assay (P25440 344-453): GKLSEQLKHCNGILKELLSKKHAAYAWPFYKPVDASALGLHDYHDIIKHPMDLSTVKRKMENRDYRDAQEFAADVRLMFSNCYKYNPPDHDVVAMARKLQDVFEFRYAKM

BRD2-BD1 [2] = target: T2, BRD2-BD1 (Homo sapiens (Human), UniProt P25440); assay: as above; assay type: binding; conditions: for EC50: Table 6, read-out: EC50 (μM) BRD2(1); for IC50: Table 2, inhibitor potency by TR-FRET
Procedure: as §1
Target sequence in this assay (P25440 74-180): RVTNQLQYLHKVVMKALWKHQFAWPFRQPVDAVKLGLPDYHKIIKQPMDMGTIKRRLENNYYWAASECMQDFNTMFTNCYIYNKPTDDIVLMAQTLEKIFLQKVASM

BRD3-BD1 = BRD3-BD1 (Homo sapiens (Human), UniProt Q15059); assay: as above; assay type: binding; conditions: for EC50: Table 6, read-out: EC50 (μM) BRD3(1); for IC50: Table 2, inhibitor potency by TR-FRET
Sequence of BRD3-BD1 (Q15059 34-140): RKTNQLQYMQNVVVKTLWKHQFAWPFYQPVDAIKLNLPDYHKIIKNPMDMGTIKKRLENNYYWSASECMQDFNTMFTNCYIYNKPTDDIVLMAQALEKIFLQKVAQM
Procedure: as §1

BRDT = BRDT (Homo sapiens, UniProt Q58F21); assay: as above; assay type: binding; conditions: for EC50: Table 6, head names no target, BRDT by comparison with Table 4, read-out: EC50
Procedure: as §1

HDMB03 cells = assay: cell viability, CellTiter-Glo; assay type: cell-based, human; conditions: Homo sapiens, HD-MB03, Table 7; read-out: EC50 (μM) HDMB03
Procedure: Human G3 medulloblastoma or mouse SHH medulloblastoma cells were grown as neurospheres in supplemented neurobasal medium, as previously described (Kawauchi et al., 2012.)
(§2) After 7 days of treatment, an equal volume of CellTiter-Glo reagent (G7572, Promega) was added and the luminescence signal was measured using an automated Envision plate reader (Perkin-Elmer). Luminescence data were normalized by log10 transformation prior to calculating the percent inhibition using the following equation:
(§3) 100*(negative control mean −compound value)/(negative control mean −positive control mean).
High-throughput assay data were analyzed using Robust Interpretation of Screening Experiments (RISE) application written in Pipeline Pilot (Accelrys, v. 8.5) and the R program (R Development Core Team).
Dose-response curves were calculated by regressing the median percent inhibition obtained over triplicate experiments to log 10-transformed concentrations. Non-linear regression was then performed using the R drc package with the four parameter log-logistic function (LL2.4) (Ritz and Streibig, 2009). Curves were fit under three different constraints: (1) all parameters free, (2) high response fixed to 100, (3) low response fixed to 0; and the best fit from these three nested models was selected using the anova.drc function.

MV-4-11 = assay: anti-proliferative activity; assay type: cell-based; conditions: Homo sapiens, MV4-11; Table 7
Procedure: as §2, §3

[3] = test system: c-Myc expression in HDMB03 cells; assay: c-Myc expression inhibition, high content microscopy (HCM); assay type: cell-based, human; conditions: Homo sapiens, HD-MB03, Table 7; read-out: EC50 (μM) Myc-inhibition
Procedure: 3000 human G3 medulloblastoma or 2000 mouse SHH medulloblastoma cells per well were plated into 384-well plates (6007710, Perkin Elmer) in 30 μL of supplemented neurobasal medium using a Wellmate automated dispenser (Thermo Matrix). After 24 hours, 125 nl of compound was transferred via pin tool, resulting in a final drug concentration from 2 nM to 40 μM. 72 hours after adding the drug, the plates were fixed with 4% formaldehyde for 20 min. After fixation the cells were then washed 3 times with 75 μl of PBS. The cells were then permeabilized with 0.1% Triton-X 100 for 15 minutes at 25° C. and blocked using 1% BSA in PBS for 1 hour at 25° C. The primary antibody against c-Myc Ab (#9402, Cell Signaling) at a 1:400 dilution was diluted in 1% BSA in PBS. This mixture was added to each well before incubation overnight at 4° C. Each well was then washed 3 times with PBS using a Biotek ELX405 Select plate washer, and incubated for 1 hour at 25° C. with a solution containing 1/400 goat α-rabbit-Alexa-488 (4412S, Cell Signaling) and 1 μM Hoechst 33342 to detect nuclear material (H3570, Molecular Probes). Two images were captured of each well at 10× using a GE Healthcare InCell 6000 at 405 nM to detect nuclear staining and 488 nM to detect c-Myc. All data were analyzed using the multi-target analysis algorithm of the GE InCell Analyzer Workstation software. The number of nuclear objects in each well, as well as all nuclear measurements, was determined through nuclear masks over the Hoechst staining. C-Myc staining was then measured using top-hat segmentation in the entire cell.

BRD4-BD2 = BRD4-BD2 (Homo sapiens (Human), UniProt O60885); assay: competitive TR-FRET assay, BET-BD with acetylated peptide ligand; assay type: binding; conditions: Table 2, inhibitor potency by TR-FRET
Procedure: as §1

BRD4-BD1 = BRD4-BD1 (Homo sapiens (Human), UniProt O60885); assay: as above; assay type: binding; conditions: Table 2, inhibitor potency by TR-FRET
Procedure: as §1

BRD2-BD2 [4] = assay: isothermal titration calorimetry analysis of binding; conditions: ITC Kd BRD2-BD1 / BRD2-BD2
Procedure: (§4) b. Isothermal Titration Calorimetry Analysis of Binding to Brd2-BD1 and Brd2-BD2
(§5) Binding of compounds to BRD2 was monitored using an ITC200 (Microcal, Piscataway, N.J.). Either Brd2.1 (74-194) or Brd2.2 (348-455) was dialyzed overnight into a solution containing 50 mM HEPES, pH 7.0 and 150 mM NaCl at 15° C. Enzyme concentrations were determined after dialysis by absorbance at 280 nm using a molar extinction coefficient (ε280) of 25,565 M^−1 cm^−1 (2.1) or 16,055 M^−1 cm^−1 (2.2). Enzyme was diluted in dialysis buffer and 39.6 μL was loaded into the syringe. Compounds were dissolved in the same dialysis buffer and loaded in the cell to a volume of 204 μL. Injections were carried out by serial injections of enzyme; first, 1 injection of 1 μL, followed by 19 incremental injections of 2 μL, at 120 second intervals. Data from the first injection was excluded, due to pre-equilibration mixing between the contents of cell and syringe at the syringe tip. Peak areas were integrated, normalized, and then fitted by non-linear regression using the independent sites model in Origin™ (version 2.3.6, Microcal, Piscataway, N.J.).

BRD2-BD2 [5] = target: T1, BRD2-BD2; assay: as above; conditions: ITC; for ΔG / ΔH / −TΔS: BRD2-BD2; for Kd: BRD2-BD2, average of 3 experiments, read-out: average Kd
Procedure: as §4, §5
Target sequence in this assay (P25440 348-455): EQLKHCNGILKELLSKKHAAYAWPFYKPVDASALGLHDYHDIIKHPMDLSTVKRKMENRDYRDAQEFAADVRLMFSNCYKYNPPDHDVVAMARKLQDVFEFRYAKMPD

BRD2-BD1 [6] = target: T2, BRD2-BD1; assay: as above; conditions: ITC; for ΔG / ΔH / −TΔS: BRD2-BD1; for Kd: BRD2-BD1, average of 3 experiments, read-out: average Kd
Procedure: as §4, §5
Target sequence in this assay (P25440 74-194): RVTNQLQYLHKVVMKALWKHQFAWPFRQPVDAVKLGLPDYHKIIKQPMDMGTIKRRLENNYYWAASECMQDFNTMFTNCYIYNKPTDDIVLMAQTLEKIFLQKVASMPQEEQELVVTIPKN

BRD3(2) = BRD3(2) (Homo sapiens (Human), UniProt Q15059); assay: BROMOscan KD determination; assay type: binding
Sequence of BRD3(2) (Q15059 306-415): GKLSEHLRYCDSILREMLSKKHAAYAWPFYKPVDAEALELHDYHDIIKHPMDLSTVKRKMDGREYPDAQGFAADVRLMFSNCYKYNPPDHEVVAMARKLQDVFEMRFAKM
From the text: (§6) DiscoverX® can screen compounds against all ˜42 bromodomains (a service called BROMOscan) and perform follow-up KD determination. This service is considered the industrial standard for bromodomain inhibitor comparisons.

BRD3(1) = BRD3(1) (Homo sapiens (Human), UniProt Q15059); assay: BROMOscan KD determination; assay type: binding; conditions: Table 10
Sequence of BRD3(1) (Q15059 34-140): as the sequence (Q15059 34-140) above
From the text: as §6

BRD4(1) = BRD4(1) (Homo sapiens (Human), UniProt O60885); assay: BROMOscan KD determination; assay type: binding; conditions: Table 10
From the text: as §6

BRD4(2) = BRD4(2) (Homo sapiens (Human), UniProt O60885); assay: BROMOscan KD determination; assay type: binding
From the text: as §6

BRD2(1) = BRD2(1) (Homo sapiens (Human), UniProt P25440); assay: BROMOscan KD determination; assay type: binding; conditions: Table 10
Sequence of BRD2(1) (P25440 74-180): as the sequence (P25440 74-180) above
From the text: (§7) DiscoverX® can screen compounds against all ˜42 bromodomains (a service called BROMOscan) and perform follow-up KD determination. This service is considered the industrial standard for bromodomain inhibitor comparisons. […] Dots are symbolic of inhibition of the compound at this concentration; the larger the size of the dot, the greater the activity of the compound. […] Though these compounds are selective for the BET family, the selectivity within the BET family is poor. The results of a competitive binding experiment between compounds 19 (left), 41 (center), and 56 (right) (at a single concentration, 1 μM) and a control for each of the bromodomains are shown in FIG. 5.

BRDT(2) = BRDT(2) (Homo sapiens (Human), UniProt Q58F21); assay: BROMOscan KD determination; assay type: binding
From the text: as §7

BRD2(2) = BRD2(2) (Homo sapiens (Human), UniProt P25440); assay: BROMOscan KD determination; assay type: binding
Sequence of BRD2(2) (P25440 344-453): as the sequence (P25440 344-453) above
From the text: as §7

BRDT(1) = BRDT(1) (Homo sapiens (Human), UniProt Q58F21); assay: BROMOscan KD determination; assay type: binding; conditions: Table 10
From the text: as §7

[2(1)/2(2)] (BRD2-BD2 [1])	EC50 (BRD2-BD2 [1]) [µM]	EC50 (BRD2-BD1 [2]) [µM]	EC50 (BRD3-BD1) [µM]	EC50 (BRDT) [µM]	SMILES	EC50 (HDMB03 cells) [µM]	IC50 (BRD4-BD2) [µM]	IC50 (BRD2-BD2 [1]) [µM]	IC50 (BRD2-BD1 [2]) [µM]	IC50 (BRD3-BD1) [µM]	IC50 (BRD4-BD1) [µM]	Selectivity (2-1/2-2) (BRD2-BD2 [4])	ΔG (BRD2-BD2 [5]) [kJ/mol]	ΔH (BRD2-BD2 [5]) [kJ/mol]	−TΔS (BRD2-BD2 [5]) [kJ/mol]	Kd (BRD2-BD2 [5]) [µM]	ΔG (BRD2-BD1 [6]) [kJ/mol]	ΔH (BRD2-BD1 [6]) [kJ/mol]	−TΔS (BRD2-BD1 [6]) [kJ/mol]	Kd (BRD2-BD1 [6]) [µM]	also measured
22.5	0.12	2.7	2.1	7.4	CCCCCNc1cccc(-c2ccc3c(c2)[C@H](Nc2ccc(C(=O)OC)cc2)C[C@H](C)N3C(C)=O)c1 [compound 44]	0.39															EC50 (MV-4-11): 0.035 µM; EC50 [3]: 0.3 µM
					CC(=O)N1c2ccc(-c3cc[nH]c3)cc2[C@H](NC(=O)OC(C)C)C[C@@H]1C [compound 55]		1.2	0.37	1.71	0.26	1.3	4.6	-42.47	-29.3	-13.9	0.0199	-38.8	-30.7	-8.16	0.0915	BD1/BD2 (BRD2-BD2 [1]): 5; IC50 (BRDT; Table 2, inhibitor potency by TR-FRET): 49 µM
					CC(=O)N1c2ccc(-c3ccc[nH]3)cc2[C@H](NC(=O)OC(C)C)C[C@@H]1C [compound 54]		8.5	> 48.6	1.55	5.6	1.7	3.7	-41.1	-28.8	-12.2	0.0359	-38	-28.9	-9.12	0.131	
					CC(=O)N1c2ccc(-c3ccsc3)cc2[C@H](NC(=O)OC(C)C)C[C@@H]1C [compound 53]		4.6	0.97	7.21	3.1	14	4.2	-42.89	-29	-13.9	0.0171	-39.5	-32.2	-7.28	0.0717	BD1/BD2 (BRD2-BD2 [1]): 7
					CC(=O)N1c2ccc(-c3cccs3)cc2[C@H](NC(=O)OC(C)C)C[C@@H]1C [compound 52]		3	0.34	1.68	1.2	> 77.8	2.9	-42.34	-30	-12.3	0.0209	-39.8	-34.6	-5.23	0.0613	BD1/BD2 (BRD2-BD2 [1]): 5
10	0.05	0.51	0.41	1.2	COC(=O)c1ccc(N[C@@H]2C[C@H](C)N(C(C)=O)c3ccc(-c4cccc(NCc5ccoc5)c4)cc32)cc1 [compound 43]	1.5															EC50 (MV-4-11): 0.007 µM; EC50 [3]: 0.88 µM
7.2	0.32	2.3	1.9	5.8	COC(=O)c1ccc(N[C@@H]2C[C@H](C)N(C(C)=O)c3ccc(-c4cccc(NCCC(F)(F)F)c4)cc32)cc1 [compound 47]	0.35															3(1)/3(2) (BRD3(2); BROMOscan KD ratio): 16.1; Kd (BRD3(2); BROMOscan, Table 10): 0.0023 µM; Kd (BRD3(1)): 0.037 µM; Kd (BRD4(1)): 0.032 µM; 4(1)/4(2) (BRD4(2); BROMOscan KD ratio): 11.4; Kd (BRD4(2); BROMOscan, Table 10): 0.0028 µM; Kd (BRD2(1)): 0.041 µM; T(1)/T(2) (BRDT(2); BROMOscan KD ratio): 2.6; Kd (BRDT(2); BROMOscan, Table 10): 0.0081 µM; [2(1)/2(2)] (BRD2(2); BROMOscan KD ratio): 8.2; Kd (BRD2(2); BROMOscan, Table 10): 0.005 µM; Kd (BRDT(1)): 0.021 µM; EC50 (MV-4-11): 0.008 µM; EC50 [3]: 0.25 µM

— US11028051B2, “Tetrahydroquinoline-based bromodomain inhibitors” (St. Jude Children's Research Hospital, priority 2016, dated 2021)
